Test results as given in US20230095618A1, “OIL-IN-WATER EMULSION COMPRISING A SOLID LIPID MATERIAL” (priority 2020, published 2023).

System: yellow fever mosquito, Aedes aegypti Rockefeller strain
Assay: Repulsive effect on mosquitoes: number of landings on a treated warm glass plate in a cage
Type: in vivo
Conditions: reference actives diluted at 12.5% in ethanol; for number of mosquito landings: glass plate at 34° C., cage with 30 unfed A. aegypti females
Protocol: Controlling efficacy was tested against the yellow fever mosquito, Aedes aegypti Rockefeller strain. […] Observations of controlling efficacy were made on host-seeking females of uniform age, 5 to 12 days post-eclosion from pupae. Tested hungry females had access to 10% sugar solution but were not blood-fed. The testing protocol was adapted from the method described in Krober et al. (2010; doi: 10.2987/10-6044.1). A controlled amount […] of stimulus was deposited in the center of a sandblasted glass plate (60 mm diam) and maintained at 34° C. The glass plate was then placed in a polycarbonate cage (200×260×180 mm) containing 30 A. aegypti unfed female mosquitoes. The number of landings of the mosquitoes as a function of time was monitored using a camera and allowed to evaluate the repulsive effect of the stimulus. Stimuli tested were water, ethanol or diluted insect repellent active as controls and samples according to example 1. When only water is applied onto the glass surface, the average number of mosquitoes landing is about 63. The reference sample consisting of pure IR3535® diluted at 12.5% in ethanol reduces the number of landing from about 63 landings in the control test to about 12 landings 2 hrs after application (81% reduction), 15 after 4 hrs (−76%) and 30 after 6 hrs (−52%). Emulsion 1 according to example 1 reduces the number of landings from about 63 landings in the control test to about 12 landings 2 hrs after application (81% reduction), 4 after 4 hrs (−93%) and 3 after 6 hrs (−95%). […] Emulsion 2 according to example 1 reduces the number of landings from about 63 landings in the control test to about 8 landings 2 hrs after application (87% reduction), 2 after 4 hrs (−97%) and 4 after 6 hrs (−93%).

SMILES | number of mosquito landings (2 hrs after application) | reduction of the number of landings versus water control (2 hrs after application) [%] | number of mosquito landings (after 4 hrs) [landings] | change of the number of landings versus water control (given as negative %) (after 4 hrs) [%] | number of mosquito landings (after 6 hrs) [landings] | change of the number of landings versus water control (given as negative %) (after 6 hrs) [%]
CCCCN(CCC(=O)OCC)C(C)=O [IR3535®, ethyl 3-(acetyl(butyl)amino)propanoate] | about 12 landings | 81 | ~15 | −76 | ~30 | −52
CCN(CC)C(=O)c1cccc(C)c1 [DEET, N,N-diethyl-3-methylbenzamide] | about 15 landings | 72 | ~10 | −81 | ~19 | −65
